Among the data in patent US7858621B2 (Amorepacific Corporation, priority 2006, dated 2010) are IC50 values, retold here.

T1 sequence (O35433 whole entry): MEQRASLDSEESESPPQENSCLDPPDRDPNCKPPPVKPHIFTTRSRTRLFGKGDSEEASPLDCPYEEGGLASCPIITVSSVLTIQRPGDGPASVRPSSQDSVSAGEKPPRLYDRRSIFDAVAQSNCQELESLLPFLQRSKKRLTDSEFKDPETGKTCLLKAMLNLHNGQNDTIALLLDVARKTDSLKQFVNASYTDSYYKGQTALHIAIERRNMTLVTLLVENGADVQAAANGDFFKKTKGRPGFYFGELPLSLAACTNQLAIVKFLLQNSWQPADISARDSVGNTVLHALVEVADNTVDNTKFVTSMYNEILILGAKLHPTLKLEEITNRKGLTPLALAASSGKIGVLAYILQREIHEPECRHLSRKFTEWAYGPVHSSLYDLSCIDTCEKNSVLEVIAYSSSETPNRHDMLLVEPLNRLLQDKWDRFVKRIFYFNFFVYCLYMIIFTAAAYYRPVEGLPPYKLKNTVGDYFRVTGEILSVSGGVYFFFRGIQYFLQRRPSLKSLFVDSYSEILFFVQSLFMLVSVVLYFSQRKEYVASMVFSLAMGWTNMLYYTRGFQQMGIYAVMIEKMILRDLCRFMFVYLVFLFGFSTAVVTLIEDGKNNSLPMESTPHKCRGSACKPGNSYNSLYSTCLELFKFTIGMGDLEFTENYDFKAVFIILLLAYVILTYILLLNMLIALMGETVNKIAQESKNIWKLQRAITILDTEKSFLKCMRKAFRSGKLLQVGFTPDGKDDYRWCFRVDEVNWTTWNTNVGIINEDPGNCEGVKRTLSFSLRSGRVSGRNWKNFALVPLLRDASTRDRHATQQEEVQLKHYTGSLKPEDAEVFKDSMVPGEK

The assay has as its target T1, vanilloid receptor (Rattus norvegicus, UniProt O35433).
T1 construct: DRG nerve cells from the primary culture of 2 days were equilibrated; endogenous in cells; host or cells: primary culture of dorsal root ganglion neurons from neonatal SD rats
The experiment in a line: 45Ca influx test in cultured neonatal rat DRG neurons, inhibition of capsaicin response. In kind it is cell-based. The note with it: neonatal rat DRG neurons, capsaicin 0.5 μM, 45Ca influx; read-out: Antagonist Calcium Uptake Test (IC50). On the procedure:
1) Separation of Spinal Dorsal Root Ganglia (DRG) in Newborn Rats and Primary Culture Thereof
Neonatal (2-3 day old or younger than 2-3 day old) SD rats were put in ice for 5 minutes to anesthetize and disinfected with 70% ethanol. […] The DRG were incubated sequentially at 37° C. for 30 mins in 200 U/ml collagenase and 2.5 mg/ml trypsin, separately. The ganglia were washed twice with DME/F12 medium supplemented with 10% horse serum, triturated through a fire-polished Pasteur pipette, filtered through Nitex 80 membrane to obtain single cell suspension and the suspension was washed once more. This was subjected to centrifugation, then resuspended in cell culture medium at certain level of cell density. As the cell culture medium, DME/F12 medium supplemented with 10% horse serum was diluted with identical medium conditioned by C6 glioma cells 2 days on a confluent monolayer (1:1), and NGF (Nerve Growth Factor) was added to adjust 200 ng/ml as final concentration. After the cells were grown 2 days in medium where cytosine arabinoside (Ara-C, 100 μM) was added to kill dividing nonneuronal cells, medium was changed to one without Ara-C. The resuspended cells were plated at a density of 1500-2000 neurons/well onto Terasaki plates previously coated with 10 μg/ml poly-D-ornithine.
2) ^45Ca Influx Experiments
DRG nerve cells from the primary culture of 2 days were equilibrated by washing 4 times with HEPES (10 mM, pH 7.4)-buffered Ca^2+, Mg^2+-free HBSS (H-HBSS). The solution in each well was removed from the individual well. Medium containing the test compound plus capsaicin (final concentration 0.5 μM) and ^45Ca (final concentration 10 μCi/ml) in H-HBSS was added to each well and incubated at room temperature for 10 mins. Terasaki plates were washed five times with H-HBSS and dried at room temperature. To each well, 0.3% SDS (10 μl) was added to elute ^45Ca. After the addition of scintillation cocktail of into each well, the amount of ^45Ca influx into neuron was measured by counting radioactivity.
As usually defined, the IC50 is the midpoint of a concentration-inhibition curve. As for `CS(=O)(=O)Nc1ccc(CNC(=O)/C=C/c2ccc(C(F)(F)F)nc2Oc2cccnc2)cc1F` [Example 81, N-(3-Fluoro-4-methanesulfonylamino-benzyl)-3-[2-(pyridin-3-yloxy)-6-trifluoromethyl-pyridin-3-yl]-acrylamide], the IC50 came to 11900 nM.

For `C#Cc1cc(CNC(=O)/C=C/c2ccc(C(F)(F)F)nc2Oc2ccc(F)cc2)cc(F)c1NS(C)(=O)=O` [Example 82, N-(3-Ethynyl-5-fluoro-4-methanesulfonylamino-benzyl)-3-[2-(4-fluoro-phenoxy)-6-trifluoromethyl-pyridin-3-yl]-acrylamide], the concentration for half-maximal inhibition (IC50) was 600 nM.

Take `C#Cc1cc(CNC(=O)/C=C/c2ccc(C(F)(F)F)nc2OCC(F)(F)F)cc(F)c1NS(C)(=O)=O` [Example 84, N-(3-Ethynyl-5-fluoro-4-methansulfonylamino-benzyl)-3-[2-(2,2,2-trifluoro-ethoxy)-6-trifluoromethyl-pyridin-3-yl]-acrylamide]: the IC50 was determined as 240 nM.

Regarding `C#Cc1cc(CNC(=O)/C=C/c2ccc(C(F)(F)F)nc2N2CCC(OC)C2)cc(F)c1NS(C)(=O)=O` (centres unmarked) [Example 85], the half-inhibitory concentration (IC50) was 180 nM.

Consider `CCCCOc1nc(C(F)(F)F)ccc1CCC(=O)NCc1ccc(NS(C)(=O)=O)c(F)c1` [Example 86, 3-(2-Butoxy-6-trifluoromethyl-pyridin-3-yl)-N-(3-fluoro-4-methanesulfonylamino-benzyl)-propionamide], for which the IC50 turned out to be 1200 nM.

For the molecule `CS(=O)(=O)Nc1ccc(CNC(=O)/C=C/c2ccc(C(F)(F)F)nc2OCC(F)(F)F)cc1F` [Example 87, N-(3-Fluoro-4-methanesulfonylamino-benzyl)-3-[2-(2,2,2-trifluoro-ethoxy)-6-trifluoromethyl-pyridin-3-yl]-acrylamide], the IC50 amounted to 2200 nM.

On to `CCCCNc1nc(C(F)(F)F)ccc1/C=C/C(=O)NCc1ccc(NS(C)(=O)=O)c(F)c1` [Example 88, 3-(2-Butylamino-6-trifluoromethyl-pyridin-3-yl)-N-(3-fluoro-4-methanesulfonylamino-benzyl)-acrylamide], for which the IC50 came to 400 nM.

Take `CS(=O)(=O)Nc1ccc(CNC(=O)/C=C/c2ccc(C(F)(F)F)nc2NC2CCCC2)cc1F` [Example 89, 3-(2-Cyclopentylamino-6-trifluoromethyl-pyridin-3-yl)-N-(3-fluoro-4-methanesulfonylamino-benzyl)-acrylamide]: the half-maximal inhibitory concentration (IC50) came to 280 nM.

With `COC1CCN(c2nc(C(F)(F)F)ccc2C=CC(=O)NCc2ccc(NS(C)(=O)=O)c(F)c2)C1` (centres unmarked) [Example 90, N-(3-Fluoro-4-methanesulfonylamino-benzyl)-3-[2-(3-methoxy-pyrrolidin-1-yl)-6-trifluoromethyl-pyridin-3-yl]-acrylamide], the IC50 stood at 410 nM.

Regarding `C#Cc1cc(CNC(=O)CCc2ccc(C(F)(F)F)nc2N2CCCC2)cc(F)c1NS(C)(=O)=O` [Example 91, N-(3-Ethynyl-5-fluoro-4-methanesulfonylamino-benzyl)-3-(2-pyrrolidin-1-yl-6-trifluoromethyl-pyridin-3-yl)-propionamide], the IC50 amounted to 580 nM.

As for `C#Cc1cc(CNC(=O)/C=C/c2ccc(C(F)(F)F)nc2OC2CCCC2)cc(F)c1NS(C)(=O)=O` [Example 92, 3-(2-Cyclopentoxy-6-trifluoromethyl-pyridin-3-yl)-N-(3-ethynyl-5-fluoro-4-methanesulfonylamino-benzyl)-acrylamide], the 50% inhibitory concentration (IC50) was determined as 520 nM.

For the molecule `C#Cc1cc(CNC(=O)/C=C/c2ccc(C(F)(F)F)nc2OCC2CC2)cc(F)c1NS(C)(=O)=O` [Example 93, 3-(2-Cyclopropylmethoxy-6-trifluoromethyl-pyridin-3-yl)-N-(3-ethynyl-5-fluoro-4-methanesulfonylamino-benzyl)-acrylamide], the concentration for half-maximal inhibition (IC50) came to 360 nM.

`C#Cc1cc(CNC(=O)/C=C/c2ccc(C(F)(F)F)nc2N(C)C)cc(F)c1NS(C)(=O)=O` [Example 94, 3-(2-Dimethylamino-6-trifluoromethyl-pyridin-3-yl)-N-(3-ethynyl-5-fluoro-4-methanesulfonylamino-benzyl)-acrylamide]: the IC50 is 590 nM.

As to `CCOC(=O)C1CCN(c2nc(C(F)(F)F)ccc2/C=C/C(=O)NCc2ccc(NS(C)(=O)=O)c(F)c2)CC1` [Example 95, N-(3-Fluoro-4-methanesulfonylamino-benzyl)-3-[2-(4-ethoxycarbonyl-piperid-1-yl)-6-trifluoromethyl-pyridin-3-yl]-acrylamide], the 50% inhibitory concentration (IC50) was 550 nM.

With `C#Cc1cc(CNC(=O)/C=C/c2ccc(C(F)(F)F)nc2OCc2ccccc2)cc(F)c1NS(C)(=O)=O` [Example 96, N-(3-Ethynyl-5-fluoro-4-methanesulfonylamino-benzyl)-3-(2-benzyloxy 6-trifluoromethyl-pyridin-3-yl)-acrylamide], the IC50 came to 1700 nM.

As for `CS(=O)(=O)Nc1c(F)cc(CNC(=O)/C=C/c2ccc(C(F)(F)F)nc2N2CCCC2)cc1C#N` [Example 97, N-(3-Cyano-5-fluoro-4-methanesulfonylamino-benzyl)-3-(2-pyrrolidin-1-yl-6-trifluoromethyl-pyridin-3-yl)-acrylamide], the IC50 worked out at 290 nM.

In the case of `CCCCOc1nc(C(F)(F)F)ccc1/C=C/C(=O)NCc1cc(F)c(NS(C)(=O)=O)c(C#N)c1` [Example 98, 3-(2-Butoxy-6-trifluoromethyl-pyridin-3-yl)-N-(3-cyano-5-fluoro-4-methanesulfonylamino-benzyl)-acrylamide], the half-inhibitory concentration (IC50) stood at 190 nM.

On to `COCCOc1nc(C(F)(F)F)ccc1/C=C/C(=O)NCc1cc(F)c(NS(C)(=O)=O)c(C#N)c1` [Example 99, N-(3-Cyano-5-fluoro-4-methanesulfonylamino-benzyl)-3-[2-(2-methoxy-ethoxy)-6-trifluoromethyl-pyridin-3-yl]-acrylamide], for which the IC50 was found to be 1800 nM.

As for `COCCNc1nc(C(F)(F)F)ccc1/C=C/C(=O)NCc1cc(F)c(NS(C)(=O)=O)c(C#N)c1` [Example 101, N-(3-Cyano-5-fluoro-4-methanesulfonylamino-benzyl)-3-[2-(2-methoxy-ethylamino)-6-trifluoromethyl-pyridin-3-yl]-acrylamide], the IC50 worked out at 840 nM.

With `CS(=O)(=O)Nc1c(F)cc(CNC(=O)/C=C/c2ccc(C(F)(F)F)nc2N2CCOCC2)cc1C#N` [Example 103, N-(3-Cyano-5-fluoro-4-methanesulfonylamino-benzyl)-3-(2-morpholin-4-yl-6-trifluoromethyl-pyridin-3-yl)-acrylamide], the IC50 was 5900 nM.

On to `CS(=O)(=O)Nc1ccc(CNC(=O)/C=C/c2ccc(C(F)(F)F)nc2OC2CCOC2)cc1F` (centres unmarked) [Example 104, 3-[2-(Tetrahydro-furan-3-yloxy)-6-trifluoromethyl-pyridin-3-yl]-N-(3-fluoro-4-methanesulfonylamino-benzyl)-acrylamide], for which the half-inhibitory concentration (IC50) came out at 1600 nM.

For `CS(=O)(=O)Nc1c(F)cc(CNC(=O)/C=C/c2ccc(C(F)(F)F)nc2Oc2ccccc2)cc1C#N` [Example 105, N-(3-Cyano-5-fluoro-4-methanesulfonylamino-benzyl)-3-(2-phenoxy-6-trifluoromethyl-pyridin-3-yl)-acrylamide], the 50% inhibitory concentration (IC50) was 630 nM.

On to `CCC(C)Oc1nc(C(F)(F)F)ccc1/C=C/C(=O)NCc1cc(F)c(NS(C)(=O)=O)c(C#N)c1` (centres unmarked) [Example 106, 3-(2-sec-Butoxy-6-trifluoromethyl-pyridin-3-yl)-N-(3-cyano-5-fluoro-4-methanesulfonylamino-benzyl)-acrylamide], for which the IC50 worked out at 83 nM.
